Results: US20120213855A1, “DOSAGE FORMS FOR WEAKLY IONIZABLE COMPOUNDS” (CIMA LABS INC., priority 2011, published 2012)

Legend:
[1] = In vivo human study, pharmacokinetics in healthy volunteers (Example 7)
Method: The study consisted of a total of eighteen healthy adult volunteers (male and female). Testing was conducted over three phases, with a minimum fourteen day washout period between each phase of the study. Test formulation A and C were randomly dosed during phases 1 and 2, while test formulation B was dosed entirely during phase 3. […] Each formulation was administered as a single dose, with approximately 240 mL of room temperature water.
Twenty-seven blood samples per subject per phase were collected at various time points over the course of 96 hours following dosing. Pharmacokinetic sampling occurred within 90 minutes prior to dosing (0 hour) and after dose administration at 0.5, 1, 1.5, 2, 2.5, 3, 3.5, 4, 4.5, 5, 5.5, 6, 6.5, 7, 7.5, 8, 8.5, 9, 9.5, 10, 12, 16, 24, 48, 72, and 96 hours. The samples were stored at room temperature for about 1 hour or until being processed for serum. The samples were centrifuged at 3000 RPM for 10 minutes at 4° C. (±10° C.). Serum samples were stored at −20±10° C. until analyzed.
The samples were evaluated using a validated bioanalytical method and according to the Bioanalytical Laboratory's Standard Operating Procedures and FDA guidelines.

[2] = In vivo dog study, serum pharmacokinetics by LC/MS/MS (Example 4)
Method: Both formulations were administered orally.
For each formulation 4 or 5 dogs were studied. Prior to administration, the animals were fasted overnight and approximately 2 hours post-dose, the animals had access to regular rations for the remaining portion of the study. The animals were dosed multiple times over the course of the study with at least a two-week recovery period between dosing phases. Each formulation was administered as a single dose, with the intravenous dosages occurring in the cephalic vein.
Blood samples were collected from the cephalic or saphenous veins. The samples were stored at room temperature for about 1 hour or until being processed for serum. The samples were centrifuged at 3200 RPM for 10 minutes at 22-26° C. Serum samples were stored at 4±5° C. until analyzed.
The samples were evaluated using LC/MS/MS.

[3] = In vitro dissolution in 900 mL DI water, USP type 2 apparatus (Example 3); assay type: physicochemical; conditions: 37° C., 50 rpm, 15 mg meloxicam, when introduced to the dissolution medium
Method: Dissolution was performed in 900 mL of DI water. Dissolution studies were conducted in a USP type 2 apparatus (Varian Inc., Cary, N.C.). Paddle speed and bath temperature were set to 50 rpm and 37° C., respectively. Samples (5 mL) were withdrawn at 5, 10, 15, 30, 45, and 60 minutes and analyzed by UV spectroscopic methods at 360 nm (Varian Cary, Australia). Dissolution experiment was performed in duplicates unless otherwise specified.

elimination phase [1]: slow elimination phase
elimination phase [2]: slow elimination phase
meloxicam dissolved in water [3]: 12%
SMILES: Cc1cnc(NC(=O)C2=C(O)c3ccccc3S(=O)(=O)N2C)s1 [Meloxicam, 4-hydroxy-2-methyl-N-(5-methyl-2-thiazolyl)-2H-1,2-benzothiazine-3-carboxamide-1,1-dioxide]
